The values that follow come from PubChem BioAssay AID624497 (The Scripps Research Institute Molecular Screening Center, 2012).

For this test, the target named is Methionine sulfoxide reductase A (Bos taurus). Kind of test: concentration-response MsrA enzyme activation – biochemical, absorbance, bovine, late stage, dose response (AID 624497). Particulars: purified MsrA enzyme activity, absorbance read-out.

The source made the active and inactive calls. No rule for the calls is given here.

With `O=C(COC(=O)c1ccc([N+](=O)[O-])s1)Nc1ccccc1`, the EC50 was > 104 µM (inactive). To `O=C1C=C(Nc2ccccc2O)c2ccccc2C1=O` belongs > 104 µM (inactive); to `C[n+]1c2ccccc2nc2ccc(NCCO)cc21`, 4.93 µM. To `COc1ccc(S(=O)(=O)N2CCOCC2)cc1NC(=O)COC(=O)c1ccc([N+](=O)[O-])s1` belongs “inactive”; to `CS(=O)(=O)c1ccc(N)c(SSc2cc(S(C)(=O)=O)ccc2N)c1`, > 104 µM (inactive). The entry for `CC1CCCC(NC(=O)COC(=O)c2ccc([N+](=O)[O-])s2)C1C` (configuration not stated) is “inactive”. Turning to `COc1ccccc1NC(=O)COC(=O)c1ccc([N+](=O)[O-])s1`, the EC50 entry was “inactive”.

`O=C1c2ccccc2-c2nnc(-c3ccccc3)cc21`: the EC50 was > 104 µM (inactive). To `O=C(COC(=O)c1ccc([N+](=O)[O-])s1)Nc1cccc(S(=O)(=O)NC2=NCCCCC2)c1` belongs > 104 µM (inactive); to `Nc1nc(=S)ss1`, “inactive”; to `Cc1oc2c(c1C(=O)c1ccccc1)C(=O)C(=O)c1ccccc1-2`, > 104 µM (inactive). To `O=[N+]([O-])c1ccc(C=Nc2cccc3ccccc23)s1` belongs > 104 µM (inactive); to `O=C(COC(=O)c1ccc([N+](=O)[O-])s1)NCCc1ccccc1`, “inactive”; to `O=C(c1ccccc1)c1coc2c1C(=O)c1ccccc1C2=O`, “inactive”. Regarding `CC(C)(C)c1ccc(NC(=O)COC(=O)c2ccc([N+](=O)[O-])s2)cc1`, the EC50 was > 104 µM (inactive).

With `O=C(OCC(=O)N1CCN(c2ccccc2)CC1)c1ccc([N+](=O)[O-])s1`, the EC50 entry was “inactive”.

With `O=C1C(Cl)=C(Nc2ccc(O)cc2)C(=O)c2ccccc21`, the EC50 was > 104 µM (inactive).

Turning to `OCC[n+]1c2ccccc2nc2ccc(N3CCOCC3)cc21`, the EC50 entry is “inactive”. Consider `O=C(OCC(=O)N(c1ccccc1)c1ccccc1)c1ccc([N+](=O)[O-])s1`, for which the EC50 result was “inactive”.

Consider `COCCCn1c(=O)c2ccccc2n2c(=S)[nH]nc12`, for which the EC50 was > 104 µM (inactive). To `c1ccc2[nH]c3cc4ncnc4cc3nc2c1` belongs “inactive”. The figure for `COc1cc(NC(=O)COC(=O)c2ccc([N+](=O)[O-])s2)cc(OC)c1OC` is > 104 µM (inactive); for `O=C(COC(=O)c1ccc([N+](=O)[O-])s1)c1ccc[nH]1` it is “inactive”; for `O=C(COC(=O)c1ccc([N+](=O)[O-])s1)NCc1ccc(F)cc1` it is “inactive”. To `CNc1ccc2nc3ccccc3[n+](C)c2c1` belongs 2.05 µM; to `NC1=C(Br)C(=O)c2ccccc2C1=O`, > 104 µM (inactive). With `O=C1C(=O)c2cccnc2-c2ncccc21`, the half-maximal effective concentration (EC50) was 4.46 µM. As for `O=C(OCc1nnc(-c2ccccc2)o1)c1ccc([N+](=O)[O-])s1`, the EC50 result is “inactive”. The figure for `Cc1ccc2[nH]c3c(c2c1)CN(C(=O)CN1CCN(c2ccccn2)CC1)CC3` is > 104 µM (inactive). The entry for `O=C1CN(C(=O)COC(=O)c2ccc([N+](=O)[O-])s2)c2ccccc2N1` is “inactive”; for `O=C(COC(=O)c1ccc([N+](=O)[O-])s1)NNC(=O)c1ccccc1` it is > 104 µM (inactive). The figure for `O=C(OCC(=O)c1c[nH]c2ccccc12)c1ccc([N+](=O)[O-])s1` is > 104 µM (inactive).
